Data on eleven substances can be found in paper PMC7980035 (The Journal of Biological Chemistry, 2021).

Like-named read-outs stand apart in the source and are kept apart here.

Series [1] addresses T1, SARS 3C-like proteinase (Severe acute respiratory syndrome coronavirus, UniProt P0C6X7). The conditions noted are these: pH 7.3.
The format of series [2] is physicochemical. As to conditions: pH 7.3.
In series [3] the target is T1, SARS 3C-like proteinase. The conditions noted are these: pH 7.3. The source holds these as a separate data set.
For series [4] the following is noted: pH 7.3.
Series [5] concerns the target SARS coronavirus 3C-like proteinase, C-terminal His6 tag (plasmid pET 3CLP-21x) (SARS coronavirus) (UniProt P0C6X7). In words: SEC. (SEC sorts molecules by how far they enter the pores of the column.)

For SAVKLQ/NNELS [Peptide S05], the kcat/Km at SARS 3C-like proteinase [1] is given as 0.202 ± 0.003 ^b mM^-1 min^-1. Further, in series [2], the “Calculated secondary structure content: Helix” value is on record as 10, the “Calculated secondary structure content: Other” value is given as 44, the “Calculated secondary structure content: Sheet” value is given as 19 and the “Calculated secondary structure content: Tum” value was 27.
As for NRATLQ/AIASE [Peptide S04], at SARS 3C-like proteinase [1], the kcat/Km is listed as 0.556 ± 0.126 ^b mM^-1 min^-1. Further, in series [2], the “Calculated secondary structure content: Helix” value was 2, the “Calculated secondary structure content: Other” value is reported as 45, the “Calculated secondary structure content: Sheet” value is on record as 24 and the “Calculated secondary structure content: Tum” value was 30.
The Km is the concentration of substrate that gives half-maximal velocity. What is called kcat is the number of substrate molecules converted per active site and unit of time at saturation. For the substance FYPKLQ/ASQAW [Peptide S11], on SARS 3C-like proteinase [3], the Km is 549 ± 105 µM, the kcat amounted to 0.0262 ± 0.00467 s⁻¹ and the kcat/Km is listed as 2.86 ± 0.21 ^a mM^-1 min^-1. Moreover, in series [2], the “Calculated secondary structure content: Helix” value was 2, the “Calculated secondary structure content: Other” value was 36, the “Calculated secondary structure content: Sheet” value is given as 30 and the “Calculated secondary structure content: Tum” value is reported as 32.
Consider ATVRLQ/AGNAT [Peptide S06], for which, at SARS 3C-like proteinase [3], the Km was found to be 1440 ± 470 µM, the kcat came out at 0.0548 ± 0.0178 s⁻¹ and the kcat/Km was 2.29 ± 0.09 ^a mM^-1 min^-1. Also, in series [2], the “Calculated secondary structure content: Helix” value is reported as 2, the “Calculated secondary structure content: Other” value was 43, the “Calculated secondary structure content: Sheet” value is given as 25 and the “Calculated secondary structure content: Tum” value was 30.
Take SGVTFQ/GKFKK [Peptide S02]: at SARS 3C-like proteinase [3], the Km stood at 583 ± 86 µM, the kcat stood at 0.0425 ± 0.00583 s⁻¹ and the kcat/Km is 4.38 ± 0.26 ^a mM^-1 min^-1. In series [2], the “Calculated secondary structure content: Helix” value is 3, the “Calculated secondary structure content: Other” value is 31, the “Calculated secondary structure content: Sheet” value is reported as 42 and the “Calculated secondary structure content: Tum” value is 24.
Take NVATLQ/AENVT [Peptide S09]: on SARS 3C-like proteinase [1], the kcat/Km is listed as 0.976 ± 0.014 ^b mM^-1 min^-1. In series [4], the solubility entry is reported as “very low solubility”.
Regarding REPLMQ/SADAS [Peptide S07], the kcat/Km on SARS 3C-like proteinase [1] is given as 0.0176 ± 0.0022 ^b mM^-1 min^-1. In series [2], the “Calculated secondary structure content: Helix” value was 1, the “Calculated secondary structure content: Other” value is given as 41, the “Calculated secondary structure content: Sheet” value is 18 and the “Calculated secondary structure content: Tum” value was 40.
As for TFTRLQ/SLENV [Peptide S10], at SARS 3C-like proteinase [3], the Km is 286 ± 20 µM, the kcat is 0.0141 ± 0.00085 s⁻¹ and the kcat/Km is on record as 2.96 ± 0.11 ^a mM^-1 min^-1. In series [2], the “Calculated secondary structure content: Helix” value is on record as 4, the “Calculated secondary structure content: Other” value was 41, the “Calculated secondary structure content: Sheet” value is recorded as 22 and the “Calculated secondary structure content: Tum” value is 33.
With KVATVQ/SKMSD [Peptide S03], the kcat/Km at SARS 3C-like proteinase [1] is reported as 0.353 ± 0.013 ^b mM^-1 min^-1. In addition, in series [2], the “Calculated secondary structure content: Helix” value is 2, the “Calculated secondary structure content: Other” value is listed as 46, the “Calculated secondary structure content: Sheet” value was 25 and the “Calculated secondary structure content: Tum” value is on record as 28.
A word on the Kd: it is the equilibrium constant for the complex coming apart. Low readings indicate a tighter complex, high ones a looser complex. On to “SARS coronavirus 3C-like proteinase, C-terminal His6 tag (plasmid pET 3CLP-21x) (from UniProt P0C6X7 3241-3546) (enzyme)”, for which, in series [5], the Kd came out at 100 µM.
Regarding PHTVLQ/AVGAC [Peptide S08], at SARS 3C-like proteinase [3], the Km was determined as 1940 ± 660 µM, the kcat is 0.028 ± 0.0095 s⁻¹ and the kcat/Km is recorded as 0.865 ± 0.028 ^a mM^-1 min^-1. In addition, in series [2], the “Calculated secondary structure content: Helix” value is recorded as 5, the “Calculated secondary structure content: Other” value is 45, the “Calculated secondary structure content: Sheet” value is 21 and the “Calculated secondary structure content: Tum” value is recorded as 29.
